{"source": "patent US10501425B2", "about": "“Microbiocidal oxadiazole derivatives” (SYNGENTA PARTICIPATIONS AG, priority 2015, dated 2019)", "key": {"[1]": {"test_system": "Puccinia recondita f. Sp. Tritici", "assay": "Puccinia recondita f. sp. tritici / wheat / leaf disc curative (brown rust)", "type": "in vivo", "conditions": "foliar, 24 h, 200 ppm in the applied formulation, wheat leaf segments cv. Kanzler, curative (applied 1 day after inoculation), compared to untreated, read-out: disease control", "procedure,_shortened": "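Spray application came one day after spore inoculation of Kanzler wheat leaf segments kept on agar. Conditions: 19° C, 75% relative humidity, dark before treatment and 12 h light/12 h dark after. Efficacy = % disease control compared with untreated, 6–8 days post-application.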"}, "Phakopsora pachyrhizi": {"test_system": "Phakopsora pachyrhizi", "assay": "Phakopsora pachyrhizi / soybean / leaf disc preventative (Asian soybean rust)", "type": "in vivo", "conditions": "foliar, 200 ppm in the applied formulation, soybean leaf disks, compared to untreated, read-out: disease control", "procedure,_shortened": "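Read-out is percent disease control relative to untreated check discs, assessed once untreated discs show adequate disease, 12 to 14 days after application. Compounds, tested at 200 ppm in the applied formulation, are sprayed onto soybean leaf discs one day before inoculation with a spore suspension.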"}, "Uromyces viciae-fabae": {"test_system": "Uromyces viciae-fabae", "assay": "Uromyces viciae-fabae / field bean / leaf disc preventative (faba-bean rust)", "type": "in vivo", "conditions": "foliar, 288 h, 100 ppm in the applied formulation, field bean leaf discs, compared to untreated, read-out: disease control", "experimental": "Leaf disks or leaf segments of various plant species are cut from plants grown in a greenhouse. The cut leaf disks or segments are placed in multiwell plates (24-well format) onto water agar. The leaf disks are sprayed with a test solution before (preventative) or after (curative) inoculation. Compounds to be tested are prepared as DMSO solutions (max. 10 mg/ml) which are diluted to the appropriate concentration with 0.025% Tween20 just before spraying. The inoculated leaf disks or segments are incubated under defined conditions (temperature, relative humidity, light, etc.) according to the respective test system. A single evaluation of disease level is carried out 3 to 14 days after inoculation, depending on the pathosystem. Percent disease control relative to the untreated check leaf disks or segments is then calculated. Field bean leaf discs are placed on water agar in multiwell plates (96-well format) and 10 μl of the formulated test compound diluted in acetone and a spreader pipetted onto the leaf disc. Two hours after application leaf discs are inoculated by spraying a spore suspension on the lower leaf surface. The leaf discs are incubated in a climate cabinet at 22° C. with 18 hour light/day and 70% relative humidity. The activity of a compound is assessed as percent disease control compared to untreated when an appropriate level of disease damage appears in untreated check leaf disks (12 days after application). The following compounds at 100 ppm in the applied formulation give at least 80% disease control in this test when compared to untreated control leaf discs under the same conditions, which show extensive disease development."}, "[2]": {"test_system": "Puccinia recondita f. Sp. Tritici", "assay": "Puccinia recondita f. sp. tritici / wheat / leaf disc preventative (brown rust)", "type": "in vivo", "conditions": "foliar, 200 ppm in the applied formulation, wheat leaf segments cv. Kanzler, preventative (inoculated 1 day after application), compared to untreated, read-out: disease control", "procedure,_shortened": "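Preventative leaf-segment test, cv. Kanzler on agar: spray compound, inoculate with spore suspension 1 d post-application, hold at 19° C./75% rh, 12 h/12 h light cycle. Read-out = % disease control vs untreated check at 7–9 d; 200 ppm in applied formulation.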"}, "[3]": {"test_system": "Glomerella lacenarium (Colletotrichum lagenarium)", "assay": "Glomerella lagenarium liquid culture / cucumber / preventative (anthracnose)", "type": "cell-based", "conditions": "Colletotrichum orbiculare; 20 ppm in the applied formulation; liquid culture (PDB), growth inhibition measured photometrically 3 to 4 days after application; compared to untreated; read-out: disease control", "procedure,_shortened": "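Conidia from cryogenic storage were mixed into potato dextrose broth. This was added to compound diluted from DMSO into 0.025% Tween20, tested at 20 ppm. Plates were incubated in the dark at 24 °C and 96% relative humidity, and growth was read photometrically after 2–7 days as % activity versus untreated check.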"}}, "data": [{"smiles": "COC(C)C(=O)NCc1ccc(-c2noc(C(F)(F)F)n2)cc1", "note": "(centres unmarked) [Compound 1.23, 2-methoxy-N-[[4-[5-(trifluoromethyl)-1,2,4-oxadiazol-3-yl]phenyl]methyl]propanamide]", "values": [{"measurement": "pest or weed control at 200 ppm", "setting": "[1]", "result": "≥ 80", "unit": "%"}, {"measurement": "pest or weed control at 200 ppm", "setting": "Phakopsora pachyrhizi", "result": "≥ 80", "unit": "%"}, {"measurement": "melting point", "result": "94 to 100", "unit": "°C"}, {"measurement": "pest or weed control at 100 ppm", "setting": "Uromyces viciae-fabae", "result": "≥ 80", "unit": "%"}, {"measurement": "pest or weed control at 200 ppm", "setting": "[2]", "result": "≥ 80", "unit": "%"}, {"measurement": "inhibition of growth at 20 ppm", "setting": "[3]", "result": "≥ 80", "unit": "%"}]}, {"smiles": "CC(C)(CCl)C(=O)NCc1ccc(-c2noc(C(F)(F)F)n2)cc1", "note": "[Compound 1.13, 3-chloro-2,2-dimethyl-N-[[4-[5-(trifluoromethyl)-1,2,4-oxadiazol-3-yl]phenyl]methyl]propanamide]", "values": [{"measurement": "pest or weed control at 200 ppm", "setting": "[1]", "result": "≥ 80", "unit": "%"}, {"measurement": "pest or weed control at 200 ppm", "setting": "Phakopsora pachyrhizi", "result": "≥ 80", "unit": "%"}, {"measurement": "pest or weed control at 100 ppm", "setting": "Uromyces viciae-fabae", "result": "≥ 80", "unit": "%"}, {"measurement": "pest or weed control at 200 ppm", "setting": "[2]", "result": "≥ 80", "unit": "%"}, {"measurement": "inhibition of growth at 20 ppm", "setting": "[3]", "result": "≥ 80", "unit": "%"}]}, {"smiles": "CC(C)(C)C(=O)NCc1ccc(-c2noc(C(F)(F)F)n2)cc1", "note": "[Compound 1.2, 2,2-dimethyl-N-[[4-[5-(trifluoromethyl)-1,2,4-oxadiazol-3-yl]phenyl]methyl]propanamide]", "values": [{"measurement": "pest or weed control at 200 ppm", "setting": "[1]", "result": "≥ 80", "unit": "%"}, {"measurement": "pest or weed control at 200 ppm", "setting": "Phakopsora pachyrhizi", "result": "≥ 80", "unit": "%"}, {"measurement": "melting point", "result": "120 to 127", "unit": "°C"}, {"measurement": "pest or weed control at 100 ppm", "setting": "Uromyces viciae-fabae", "result": "≥ 80", "unit": "%"}, {"measurement": "pest or weed control at 200 ppm", "setting": "[2]", "result": "≥ 80", "unit": "%"}, {"measurement": "inhibition of growth at 20 ppm", "setting": "[3]", "result": "≥ 80", "unit": "%"}]}, {"smiles": "C#CC(C)(C)C(=O)NCc1ccc(-c2noc(C(F)(F)F)n2)cc1", "note": "[Compound 1.3, 2,2-dimethyl-N-[[4-[5-(trifluoromethyl)-1,2,4-oxadiazol-3-yl]phenyl]methyl]but-3-ynamide]", "values": [{"measurement": "pest or weed control at 200 ppm", "setting": "[1]", "result": "≥ 80", "unit": "%"}, {"measurement": "pest or weed control at 200 ppm", "setting": "Phakopsora pachyrhizi", "result": "≥ 80", "unit": "%"}, {"measurement": "melting point", "result": "55 to 60", "unit": "°C"}, {"measurement": "pest or weed control at 100 ppm", "setting": "Uromyces viciae-fabae", "result": "≥ 80", "unit": "%"}, {"measurement": "pest or weed control at 200 ppm", "setting": "[2]", "result": "≥ 80", "unit": "%"}, {"measurement": "inhibition of growth at 20 ppm", "setting": "[3]", "result": "≥ 80", "unit": "%"}]}]}
